Results: patent US11046699B2, “Pyrazolo-pyrimidin-amino-cycloalkyl compounds and their therapeutic uses” (RAPT THERAPEUTICS, INC., priority 2018, dated 2021)
Where a name gives a salt, the structure may show the parent alone. Read-outs that look alike come from different tables or passages of the source.

Target: GCN2 (Homo sapiens, UniProt Q9P2K8)
Assay: GCN2 enzymatic endpoint assay: phosphorylation of GFP-eIF2α measured by TR-FRET (Lanthascreen)
Assay type: biochemical
Method in brief: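 Phosphorylated eIF2α read by Lanthascreen TR-FRET (acceptor 520 nm over donor 495 nm) after EDTA stop. The reaction ran 90 min at room temperature on 80 nM GFP-eIF2α with 2 μM ATP.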

[1] = tested as described in Example 77, compound and/or hydrochloride, dihydrochloride or trifluoroacetic acid salt, read-out: IC 50 Activity
[2] = GCN2 biochemical IC50, 4 nM GCN2, 2 μM ATP, 80 nM GFP-eIF2α, 90 min RT, read-out: GCN2 activity

Chain of GCN2 (Q9P2K8 whole entry): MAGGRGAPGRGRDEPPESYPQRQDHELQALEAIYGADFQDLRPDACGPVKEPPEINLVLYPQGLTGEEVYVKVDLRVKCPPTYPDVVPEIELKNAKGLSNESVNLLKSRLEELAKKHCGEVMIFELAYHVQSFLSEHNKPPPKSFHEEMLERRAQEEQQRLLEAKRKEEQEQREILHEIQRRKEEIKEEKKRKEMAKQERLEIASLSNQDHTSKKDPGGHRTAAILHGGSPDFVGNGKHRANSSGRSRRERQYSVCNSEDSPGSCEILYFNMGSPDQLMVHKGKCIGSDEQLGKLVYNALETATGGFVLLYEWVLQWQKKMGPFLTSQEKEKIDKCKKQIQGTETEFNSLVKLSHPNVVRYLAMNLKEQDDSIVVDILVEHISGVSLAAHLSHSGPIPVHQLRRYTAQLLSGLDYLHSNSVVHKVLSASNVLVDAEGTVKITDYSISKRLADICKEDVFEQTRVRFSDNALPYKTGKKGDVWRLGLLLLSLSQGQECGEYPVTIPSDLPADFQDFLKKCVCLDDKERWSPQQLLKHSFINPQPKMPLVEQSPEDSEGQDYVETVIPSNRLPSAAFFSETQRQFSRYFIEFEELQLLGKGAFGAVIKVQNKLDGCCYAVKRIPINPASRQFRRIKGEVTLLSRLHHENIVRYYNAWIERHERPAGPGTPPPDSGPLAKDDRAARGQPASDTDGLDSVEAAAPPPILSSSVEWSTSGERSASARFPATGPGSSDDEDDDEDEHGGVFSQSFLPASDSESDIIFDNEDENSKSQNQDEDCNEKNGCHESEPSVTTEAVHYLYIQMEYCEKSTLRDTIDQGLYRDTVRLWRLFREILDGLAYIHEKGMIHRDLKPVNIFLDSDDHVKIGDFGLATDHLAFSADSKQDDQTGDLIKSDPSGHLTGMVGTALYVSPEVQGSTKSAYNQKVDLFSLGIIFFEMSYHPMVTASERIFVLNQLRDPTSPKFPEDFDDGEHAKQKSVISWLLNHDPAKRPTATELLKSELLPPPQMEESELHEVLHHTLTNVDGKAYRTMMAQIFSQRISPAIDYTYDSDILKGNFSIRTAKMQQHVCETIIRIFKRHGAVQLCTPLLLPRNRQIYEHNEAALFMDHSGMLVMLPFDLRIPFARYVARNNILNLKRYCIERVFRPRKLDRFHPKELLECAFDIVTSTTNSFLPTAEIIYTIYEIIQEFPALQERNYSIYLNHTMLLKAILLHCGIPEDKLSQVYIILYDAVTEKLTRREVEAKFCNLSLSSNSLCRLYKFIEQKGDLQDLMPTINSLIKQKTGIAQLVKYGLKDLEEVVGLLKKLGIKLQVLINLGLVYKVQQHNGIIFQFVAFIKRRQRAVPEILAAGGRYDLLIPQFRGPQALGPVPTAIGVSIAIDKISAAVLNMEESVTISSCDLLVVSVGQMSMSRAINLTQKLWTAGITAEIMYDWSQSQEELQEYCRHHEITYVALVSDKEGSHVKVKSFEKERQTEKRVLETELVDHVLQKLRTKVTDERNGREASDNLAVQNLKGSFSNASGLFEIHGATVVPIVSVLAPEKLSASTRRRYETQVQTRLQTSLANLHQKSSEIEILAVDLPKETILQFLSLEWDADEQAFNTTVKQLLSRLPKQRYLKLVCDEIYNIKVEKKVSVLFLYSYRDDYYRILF

CNC(=O)[C@]1(C)CC[C@@H](Nc2ncc3c(Br)nn(-c4cc(Cl)cc(C5CN(C)C(=O)CO5)c4)c3n2)C1 (stereo partly drawn) [(1R,3R)-3-[[3-bromo-1-[3-chloro-5-(4-methyl-5-oxo-morpholin-2-yl)phenyl]pyrazolo[3,4-d]pyrimidin-6-yl]amino]-N,1-dimethyl-cyclopentane-carboxamide]
IC50 [1]: 25 to 200 nM

O=C([C@@H]1CC[C@@H](Nc2ncc3c(Br)nn(-c4ccc5ncccc5c4)c3n2)C1)N1CC[S+]([O-])CC1 [((1R,3R)-3-((3-bromo-1-(quinolin-6-yl)-1H-pyrazolo[3,4-d]pyrimidin-6-yl)amino)cyclo-pentyl)(1-oxidothiomorpholino)methanone]
IC50 [1]: 25 to 200 nM

CNC(=O)[C@]1(C)CC[C@@H](Nc2ncc3c(Br)nn(-c4ccc5nc(N6CCCC6)ncc5c4)c3n2)C1
IC50 [1]: 25 to 200 nM

CNC(=O)[C@]1(CCC#N)CC[C@@H](Nc2ncc3c(Br)nn(-c4cc(F)c5ncccc5c4)c3n2)C1 [Example 43, (1S,3R)-3-((3-bromo-1-(8-fluoroquinolin-6-yl)-1H-pyrazolo[3,4-d]pyrimidin-6-yl)amino)-1-(2-cyanoethyl)-N-methylcyclopentane-1-carboxamide hydrochloride]
IC50 [2]: < 25 nM

CNC(=O)[C@]1(C)CC[C@@H](Nc2ncc3c(Br)nn(-c4ccc(C(=O)c5ccno5)cc4)c3n2)C1 [(1R,3R)-3-[[3-bromo-1-[4-(isoxazole-5-carbonyl)phenyl]pyrazolo[3,4-d]pyrimidin-6-yl]amino]-N,1-dimethyl-cyclopentanecarboxamide]
IC50 [1]: 25 to 200 nM

CNC(=O)[C@]1(C)CC[C@@H](Nc2ncc3c(Br)nn(-c4cc([C@@H](C)N)c5nccnc5c4)c3n2)C1 [Example 34, (1R,3R)-3-((1-(8-((R)-1-aminoethyl)quinoxalin-6-yl)-3-bromo-1H-pyrazolo[3,4-d]pyrimidin-6-yl)amino)-N,1-dimethylcyclopentane-1-carboxamide; 2,2,2-trifluoroacetic acid]
IC50 [2]: < 25 nM

CNC(=O)C1(C)CC[C@@H](Nc2ncc3c(Br)nn(-c4ccc5[nH]c(=O)cc(C)c5c4)c3n2)C1 (stereo partly drawn) [(3R)-3-[[3-bromo-1-(4-methyl-2-oxo-1H-quinolin-6-yl)pyrazolo[3,4-d]pyrimidin-6-yl]amino]-N,1-dimethyl-cyclopentanecarboxamide]
IC50 [1]: 25 to 200 nM

CNC(=O)[C@]1(C)CC[C@@H](Nc2ncc3c(Br)nn(-c4ccc(-c5cnccn5)nc4)c3n2)C1 [(1R,3R)-3-[[3-bromo-1-(6-pyrazin-2-yl-3-pyridyl)pyrazolo[3,4-d]pyrimidin-6-yl]amino]-N,1-dimethyl-cyclopentane-carboxamide]
IC50 [1]: 25 to 200 nM

COCCNC(=O)[C@@H]1CC[C@@H](Nc2ncc3c(Br)nn(-c4cc(C(F)F)c5ncccc5c4)c3n2)C1 [(1R,3R)-3-((3-bromo-1-(8-(difluoromethyl)quinolin-6-yl)-1H-pyrazolo[3,4-d]pyrimidin-6-yl)amino)-N-(2-methoxyethyl)cyclopentane-1-carboxamide]
IC50 [1]: 25 to 200 nM

CNC(=O)[C@]1(C)CC[C@@H](Nc2ncc3c(Br)nn(-c4cc(F)cc([C@H](C)N)c4)c3n2)C1
IC50 [1]: 25 to 200 nM

CNC(=O)[C@]1(C)CC[C@@H](Nc2ncc3c(Br)nn(-c4cc(F)cc(CO)c4)c3n2)C1 [(1R,3R)-3-[[3-bromo-1-[3-fluoro-5-(hydroxymethyl)phenyl]pyrazolo[3,4-d]pyrimidin-6-yl]amino]-N,1-dimethyl-cyclopentanecarboxamide]
IC50 [1]: 25 to 200 nM

CNC(=O)[C@]1(C)CC[C@@H](Nc2ncc3c(Br)nn(-c4ccc(-c5nnc(C)o5)c(CO)c4)c3n2)C1 [Example 58, (1R,3R)-3-((3-bromo-1-(3-(hydroxymethyl)-4-(5-methyl-1,3,4-oxadiazol-2-yl)phenyl)-1H-pyrazolo[3,4-d]pyrimidin-6-yl)amino)-N,1-dimethylcyclopentane-1-carboxamide]
IC50 [2]: 25 to 200 nM

CNC(=O)[C@@H]1CC[C@@H](Nc2ncc3c(I)nn(-c4cc(F)c5ncccc5c4)c3n2)C1 [(1R,3R)-3-[[1-(8-fluoro-6-quinolyl)-3-iodo-pyrazolo[3,4-d]pyrimidin-6-yl]amino]-N-methyl-cyclopentanecarboxamide]
IC50 [1]: < 25 nM

CNC(=O)[C@]1(C)CC[C@@H](Nc2ncc3c(Br)nn(-c4ccc5c(c4)n(C)c(=O)c(=O)n5C)c3n2)C1 [(1R,3R)-3-[[3-bromo-1-(1,4-dimethyl-2,3-dioxo-quinoxalin-6-yl)pyrazolo [3,4-d]pyrimidin-6-yl]amino]-N,1-dimethyl-cyclopentanecarboxamide]
IC50 [1]: 25 to 200 nM

CNC(=O)[C@]1(C)CC[C@@H](Nc2ncc3c(Br)nn(-c4ccc5nc(OC)ccc5c4)c3n2)C1 [(1R,3R)-3-[[3-bromo-1-(2-methoxy-6-quinolyl)pyrazolo[3,4-d]pyrimidin-6-yl]amino]-N,1-dimethyl-cyclopentane-carboxamide]
IC50 [1]: 25 to 200 nM

CNC(=O)[C@]1(C)CC[C@@H](Nc2ncc3c(Br)nn(-c4ccc(C5=NOCC5)cc4)c3n2)C1 [(1R,3R)-3-[[3-bromo-1-[4-(4,5-dihydro-isoxazol-3-yl)phenyl]pyrazolo[3,4-d]pyrimidin-6-yl]amino]-N,1-dimethyl-cyclopentanecarboxamide]
IC50 [1]: 25 to 200 nM

CNC(=O)[C@]1(C)CC[C@@H](Nc2ncc3c(Br)nn(-c4cc(CCC#N)c5c(c4)CCC(=O)N5C)c3n2)C1 [(1R,3R)-3-[[3-bromo-1-[8-(2-cyanoethyl)-1-methyl-2-oxo-3,4-dihydroquinolin-6-yl]pyrazolo[3,4-d]pyrimidin-6-yl]amino]-N,1-dimethyl-cyclopentanecarboxamide]
IC50 [1]: 25 to 200 nM

CNC(=O)[C@]1(C)CC[C@@H](Nc2ncc3c(Br)nn(-c4ccc(OCC#N)cc4)c3n2)C1 [(1R,3R)-3-[[3-bromo-1-[4-(cyanomethoxy)phenyl]pyrazolo[3,4-d]pyrimidin-6-yl]amino]-N,1-dimethyl-cyclopentane-carboxamide]
IC50 [1]: 25 to 200 nM
